ChEMBL document CHEMBL3991601, “The target landscape of clinical kinase drugs” (Science, 2017)
pKd: −log10 of the molar value. Activity calls are given as the source filed them. Cut-off read from the data, not from the text of the source, for most assays here: actives have a measured Kd and inactives only a lower limit.

How the values were obtained:
[1] = biological target: Mitogen-activated protein kinase 3 (Homo sapiens, UniProt P27361)
[2] = biological target: 5'-AMP-activated protein kinase catalytic subunit alpha-1 (Homo sapiens, UniProt Q13131)
[3] = biological target: T1, Mitogen-activated protein kinase kinase kinase kinase 3 (Homo sapiens, UniProt Q8IVH8)
T1 sequence (Q8IVH8 whole entry): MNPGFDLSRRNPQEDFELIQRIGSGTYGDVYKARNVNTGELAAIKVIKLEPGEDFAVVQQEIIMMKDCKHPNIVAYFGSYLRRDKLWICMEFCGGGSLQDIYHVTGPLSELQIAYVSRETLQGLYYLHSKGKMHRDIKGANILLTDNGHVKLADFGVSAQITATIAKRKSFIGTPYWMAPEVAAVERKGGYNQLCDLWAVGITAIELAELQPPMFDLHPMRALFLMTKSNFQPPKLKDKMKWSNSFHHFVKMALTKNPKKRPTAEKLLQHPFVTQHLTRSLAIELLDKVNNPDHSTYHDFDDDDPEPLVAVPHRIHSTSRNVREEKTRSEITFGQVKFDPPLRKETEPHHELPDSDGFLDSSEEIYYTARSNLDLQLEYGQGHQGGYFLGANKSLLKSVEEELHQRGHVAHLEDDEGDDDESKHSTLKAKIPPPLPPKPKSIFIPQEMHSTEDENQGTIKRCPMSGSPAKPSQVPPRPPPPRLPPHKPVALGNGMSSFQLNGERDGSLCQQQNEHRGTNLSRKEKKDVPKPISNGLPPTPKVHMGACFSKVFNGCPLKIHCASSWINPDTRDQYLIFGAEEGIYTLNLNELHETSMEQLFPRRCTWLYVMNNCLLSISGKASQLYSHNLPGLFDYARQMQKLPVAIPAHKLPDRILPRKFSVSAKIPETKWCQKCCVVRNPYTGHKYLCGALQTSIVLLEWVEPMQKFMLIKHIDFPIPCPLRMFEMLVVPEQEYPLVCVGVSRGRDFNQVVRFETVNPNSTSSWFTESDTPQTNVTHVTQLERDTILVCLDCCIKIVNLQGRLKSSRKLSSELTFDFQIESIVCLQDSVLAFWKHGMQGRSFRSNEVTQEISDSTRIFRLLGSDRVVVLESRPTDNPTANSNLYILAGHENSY

[4] = biological target: T2, Serine/threonine-protein kinase ULK1 (Homo sapiens, UniProt O75385)
T2 sequence (O75385 whole entry): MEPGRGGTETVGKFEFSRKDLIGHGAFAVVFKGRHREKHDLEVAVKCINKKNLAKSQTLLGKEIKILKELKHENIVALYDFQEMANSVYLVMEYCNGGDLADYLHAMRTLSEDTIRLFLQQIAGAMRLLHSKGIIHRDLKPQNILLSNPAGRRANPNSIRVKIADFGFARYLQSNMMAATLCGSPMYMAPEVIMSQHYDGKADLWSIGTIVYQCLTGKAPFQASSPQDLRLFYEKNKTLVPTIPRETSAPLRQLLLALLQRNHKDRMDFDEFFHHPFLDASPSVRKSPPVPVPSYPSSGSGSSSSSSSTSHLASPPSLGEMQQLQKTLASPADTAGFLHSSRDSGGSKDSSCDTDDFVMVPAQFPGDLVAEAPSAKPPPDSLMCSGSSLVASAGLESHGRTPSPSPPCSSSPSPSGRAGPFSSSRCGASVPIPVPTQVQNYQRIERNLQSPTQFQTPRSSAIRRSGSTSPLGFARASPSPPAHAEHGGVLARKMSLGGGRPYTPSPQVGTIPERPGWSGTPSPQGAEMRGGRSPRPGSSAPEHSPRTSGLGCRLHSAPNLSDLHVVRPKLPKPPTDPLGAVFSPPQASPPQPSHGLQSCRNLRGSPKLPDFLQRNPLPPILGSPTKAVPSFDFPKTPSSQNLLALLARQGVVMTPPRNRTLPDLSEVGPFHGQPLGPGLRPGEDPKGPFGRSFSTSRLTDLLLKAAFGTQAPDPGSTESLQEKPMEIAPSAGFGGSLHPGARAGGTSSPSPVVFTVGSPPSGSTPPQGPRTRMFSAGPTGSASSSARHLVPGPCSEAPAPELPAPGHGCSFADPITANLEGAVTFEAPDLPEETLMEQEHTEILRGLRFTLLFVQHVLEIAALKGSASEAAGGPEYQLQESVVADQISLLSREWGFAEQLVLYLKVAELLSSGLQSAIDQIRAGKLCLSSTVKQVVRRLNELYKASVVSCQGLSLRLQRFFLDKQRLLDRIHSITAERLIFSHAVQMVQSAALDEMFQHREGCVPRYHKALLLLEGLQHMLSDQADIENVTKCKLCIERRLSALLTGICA

[5] = biological target: T3, Ras-related protein Rab-10 (Homo sapiens, UniProt P61026)
T3 sequence (P61026 whole entry): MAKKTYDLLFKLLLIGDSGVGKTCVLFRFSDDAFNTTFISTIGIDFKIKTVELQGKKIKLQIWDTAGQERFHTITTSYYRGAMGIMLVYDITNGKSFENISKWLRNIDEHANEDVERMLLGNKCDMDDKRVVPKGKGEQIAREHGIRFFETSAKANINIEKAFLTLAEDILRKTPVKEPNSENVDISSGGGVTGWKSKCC

[6] = biological target: cAMP-dependent protein kinase catalytic subunit beta (Homo sapiens, UniProt P22694)
dCTP pyrophosphatase 1 = biological target: T4, dCTP pyrophosphatase 1 (Homo sapiens, UniProt Q9H773)
T4 sequence (Q9H773 whole entry): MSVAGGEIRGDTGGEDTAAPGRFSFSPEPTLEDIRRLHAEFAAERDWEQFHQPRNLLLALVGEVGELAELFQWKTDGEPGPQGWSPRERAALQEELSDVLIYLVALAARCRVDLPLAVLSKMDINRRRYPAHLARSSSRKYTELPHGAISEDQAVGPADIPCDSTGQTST

[7] = biological target: T5, Serine/threonine-protein kinase ULK3 (Homo sapiens, UniProt Q6PHR2)
T5 sequence (Q6PHR2 whole entry): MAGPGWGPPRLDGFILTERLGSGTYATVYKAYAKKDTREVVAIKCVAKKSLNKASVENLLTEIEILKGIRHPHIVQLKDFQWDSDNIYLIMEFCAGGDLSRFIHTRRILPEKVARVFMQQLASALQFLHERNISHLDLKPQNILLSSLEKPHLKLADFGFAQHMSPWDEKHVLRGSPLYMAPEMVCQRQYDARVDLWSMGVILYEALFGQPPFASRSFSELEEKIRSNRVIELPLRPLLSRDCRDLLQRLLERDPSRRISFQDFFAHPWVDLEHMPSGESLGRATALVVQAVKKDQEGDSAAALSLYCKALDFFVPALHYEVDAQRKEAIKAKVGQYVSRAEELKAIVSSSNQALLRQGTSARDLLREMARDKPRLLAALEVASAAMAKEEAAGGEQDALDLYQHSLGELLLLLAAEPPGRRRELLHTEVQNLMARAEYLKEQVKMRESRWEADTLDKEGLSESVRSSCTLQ
Note: in the data inactive means no Kd found up to 30 µM.

Sequence of 5'-AMP-activated protein kinase catalytic subunit alpha-1 (Q13131 whole entry): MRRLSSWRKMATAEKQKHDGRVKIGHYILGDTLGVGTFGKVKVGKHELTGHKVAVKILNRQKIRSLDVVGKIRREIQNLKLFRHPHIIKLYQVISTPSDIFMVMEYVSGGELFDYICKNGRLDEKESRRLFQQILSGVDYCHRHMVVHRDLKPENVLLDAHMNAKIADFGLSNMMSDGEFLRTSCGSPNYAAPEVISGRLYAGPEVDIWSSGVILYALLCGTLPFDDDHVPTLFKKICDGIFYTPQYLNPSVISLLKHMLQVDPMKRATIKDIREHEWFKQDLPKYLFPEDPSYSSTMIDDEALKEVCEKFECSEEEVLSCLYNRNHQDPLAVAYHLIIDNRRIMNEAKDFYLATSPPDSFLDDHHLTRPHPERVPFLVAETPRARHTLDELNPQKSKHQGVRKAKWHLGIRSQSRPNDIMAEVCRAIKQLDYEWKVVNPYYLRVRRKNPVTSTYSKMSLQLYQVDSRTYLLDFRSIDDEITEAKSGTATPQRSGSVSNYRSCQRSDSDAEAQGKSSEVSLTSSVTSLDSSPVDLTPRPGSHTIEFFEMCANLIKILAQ
Sequence of Mitogen-activated protein kinase 3 (P27361 whole entry): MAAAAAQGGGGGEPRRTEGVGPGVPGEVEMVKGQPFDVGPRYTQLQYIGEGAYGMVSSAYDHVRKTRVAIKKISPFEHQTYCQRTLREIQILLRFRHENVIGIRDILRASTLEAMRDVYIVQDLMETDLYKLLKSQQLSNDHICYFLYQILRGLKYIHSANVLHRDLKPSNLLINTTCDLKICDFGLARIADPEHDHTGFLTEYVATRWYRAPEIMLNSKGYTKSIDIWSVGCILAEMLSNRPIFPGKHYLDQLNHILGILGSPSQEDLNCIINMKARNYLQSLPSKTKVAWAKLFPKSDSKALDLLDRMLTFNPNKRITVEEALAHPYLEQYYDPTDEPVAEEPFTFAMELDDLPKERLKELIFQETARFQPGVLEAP

Row | Kd [1] | Kd [2] | Kd [3] | Kd [4] | Kd [5] | Kd [6] | Kd (dCTP pyrophosphatase 1) | Kd [7] | pKd [3] | SMILES
1 | > 30 µM (inactive) | > 30 µM (inactive) | > 30 µM (inactive) | > 30 µM (inactive) | > 30 µM (inactive) | > 30 µM (inactive) | > 30 µM (inactive) | > 30 µM (inactive) | – | C[C@@H](Oc1cc(C(=O)Nc2ccc(C(=O)N3CCN(C)CC3)cc2)nnc1N)c1c(Cl)ccc(F)c1Cl
2 | > 30 µM (inactive) | 3.27 µM (active) | – | > 30 µM (inactive) | > 30 µM (inactive) | > 30 µM (inactive) | > 30 µM (inactive) | > 30 µM (inactive) | 5.49 | C[C@H]1CNCCCN1S(=O)(=O)c1cccc2cncc(F)c12
3 | > 30 µM (inactive) | > 30 µM (inactive) | > 30 µM (inactive) | > 30 µM (inactive) | > 30 µM (inactive) | > 30 µM (inactive) | > 30 µM (inactive) | > 30 µM (inactive) | – | Cc1nc2cc(-c3nn(C(C)C)c4ncnc(N)c34)ccc2o1
4 | > 30 µM (inactive) | > 30 µM (inactive) | > 30 µM (inactive) | > 30 µM (inactive) | > 30 µM (inactive) | > 30 µM (inactive) | > 30 µM (inactive) | > 30 µM (inactive) | – | Nc1ncnc2c1c(-c1cccc(OCc3ccccc3)c1)cn2[C@H]1C[C@@H](CN2CCC2)C1 [AEW-541]
5 | > 30 µM (inactive) | > 30 µM (inactive) | > 30 µM (inactive) | > 30 µM (inactive) | > 30 µM (inactive) | > 30 µM (inactive) | > 30 µM (inactive) | > 30 µM (inactive) | – | Cc1nc(NC(=O)N2CCC[C@H]2C(N)=O)sc1-c1ccnc(C(C)(C)C(F)(F)F)c1 [ALPELISIB]
6 | > 30 µM (inactive) | > 30 µM (inactive) | > 30 µM (inactive) | 0.19 µM (active) | > 30 µM (inactive) | > 30 µM (inactive) | > 30 µM (inactive) | > 30 µM (inactive) | – | Cc1csc(-c2nnc(Nc3ccc(Oc4ncccc4-c4ccnc(N)n4)cc3)c3ccccc23)c1 [AMG-900]
7 | > 30 µM (inactive) | > 30 µM (inactive) | > 30 µM (inactive) | > 30 µM (inactive) | > 30 µM (inactive) | > 30 µM (inactive) | > 30 µM (inactive) | > 30 µM (inactive) | – | C=CC(=O)Nc1cc2c(Nc3ccc(F)c(Cl)c3)ncnc2cc1C#CC(C)(C)N1CCN(C)CC1 [AV-412 FREE BASE]
8 | > 30 µM (inactive) | > 30 µM (inactive) | > 30 µM (inactive) | > 30 µM (inactive) | > 30 µM (inactive) | > 30 µM (inactive) | > 30 µM (inactive) | > 30 µM (inactive) | – | Cc1cc(C(=O)NOCCO)c(Nc2ccc(I)cc2F)n(C)c1=O [AZD-8330]
9 | > 30 µM (inactive) | > 30 µM (inactive) | > 30 µM (inactive) | > 30 µM (inactive) | > 30 µM (inactive) | > 30 µM (inactive) | > 30 µM (inactive) | > 30 µM (inactive) | – | Cn1cnc2c(F)c(Nc3ccc(Br)cc3F)c(C(=O)NOCCO)cc21 [BINIMETINIB]
10 | > 30 µM (inactive) | > 30 µM (inactive) | > 30 µM (inactive) | > 30 µM (inactive) | > 30 µM (inactive) | > 30 µM (inactive) | > 30 µM (inactive) | > 30 µM (inactive) | – | CCn1c(C(=O)N(C2CC2)C2CC2)cc2c3c(ncn3C)c(Nc3cc(C)n(C)n3)nc21 [BMS-911543]
11 | > 30 µM (inactive) | > 30 µM (inactive) | > 30 µM (inactive) | > 30 µM (inactive) | > 30 µM (inactive) | > 30 µM (inactive) | > 30 µM (inactive) | > 30 µM (inactive) | – | COc1cc2ncnc(Oc3cccc(NC(=O)Nc4cc(C(C)(C)C(F)(F)F)on4)c3)c2cc1OC [CEP-32496]
12 | > 30 µM (inactive) | > 30 µM (inactive) | > 30 µM (inactive) | > 30 µM (inactive) | > 30 µM (inactive) | > 30 µM (inactive) | > 30 µM (inactive) | > 30 µM (inactive) | – | Cc1cc(Nc2ncc(Cl)c(Nc3ccccc3S(=O)(=O)C(C)C)n2)c(OC(C)C)cc1C1CCNCC1 [CERITINIB]
13 | > 30 µM (inactive) | > 30 µM (inactive) | > 30 µM (inactive) | > 30 µM (inactive) | > 30 µM (inactive) | > 30 µM (inactive) | > 30 µM (inactive) | > 30 µM (inactive) | – | COc1c(OCCCN2CCOCC2)ccc2c1N=C(NC(=O)c1cnc(N)nc1)N1CCN=C21 [COPANLISIB]
14 | > 30 µM (inactive) | > 30 µM (inactive) | > 30 µM (inactive) | > 30 µM (inactive) | > 30 µM (inactive) | > 30 µM (inactive) | > 30 µM (inactive) | > 30 µM (inactive) | – | COCC(=O)NC/C=C/c1ccc2ncnc(Nc3ccc(Oc4ccc(C)nc4)c(C)c3)c2c1 [CP-724714]
15 | > 30 µM (inactive) | > 30 µM (inactive) | > 30 µM (inactive) | > 30 µM (inactive) | > 30 µM (inactive) | > 30 µM (inactive) | > 30 µM (inactive) | > 30 µM (inactive) | – | C#Cc1cccc(Nc2ncnc3cc(OC)c(OCCCCCCC(=O)NO)cc23)c1 [CUDC-101]

Row | SMILES | Kd [1] | Kd [2] | Kd [3] | Kd [4] | Kd [5] | Kd [6] | Kd (dCTP pyrophosphatase 1) | Kd [7] | pKd [3]
16 | NC(=O)Nc1cc(-c2cccc(F)c2)sc1C(=O)N[C@H]1CCCNC1 [AZD-7762] | > 30 µM (inactive) | 0.762 µM (active) | 0.363 µM (active) | 0.115 µM (active) | > 30 µM (inactive) | > 30 µM (inactive) | > 30 µM (inactive) | 1.79 µM (active) | –
